The values that follow come from US20230292746A1, “MIXTURES AND COMPOSITIONS COMPRISING 5-FLUORO-4-IMINO-3- METHYL-1-TOSYL-3,4-DIHYDROPYRIMIDIN-2-ONE, AND METHODS OF USE THEREOF” (Adama Makhteshim Ltd., priority 2020, published 2023).

Series [1] deals with Zymoseptoria tritici strain Mg Tri-R6. The series is described as follows: Fungicidal efficacy on treated wheat leaves inoculated with Z. tritici (AUDPC, intensity of infection). It counts as in vivo. The conditions noted are these: 21 dpi. The procedure: Wheat crop (Winter wheat plants cv. Alixan (Limagrain) at the BBCH 12 growth stage) was treated with compositions comprising the compound of Formula I and adjuvants in different concentrations as built-in composition and/or as tank mix application.
All the tested compositions and mixtures were prepared in a volume of water corresponding to 200 L/ha and used 3 hours after preparation.
The SC composition of Example 1 was mixed with Trycol® (0.2 or 0.4 L per hectare) or Silwet (0.01 L per hectare) which were added as tank mix in 200 L volume of water.
The compositions and mixtures were applied with a hand sprayer at operating pressure of 2 bars. Three replicates (pots) of 6 wheat plants each were used for each condition tested.
After treatment, wheat plants were left to dry at room temperature for 1 hour and then incubated in a climatic chamber: Temperature of 24° C. day/18° C. night—Photoperiod of 16 h light/8 h dark and a Relative Humidity of 65%.
Fragments of the first leaf are cut and transferred in Petri dish containing adapted water agar (6 leaf fragments per Petri dish). Fragments are inoculated with a calibrated pycnospores suspension of Z. tritici strain Mg Tri-R6. […]
After incubation time of 21 days, the intensity of the infection, which is the surface of colonized leaf by Z. tritici strain, is assessed (quantitative criteria). The fungicidal efficacy on each composition is then determined in percent of the untreated control. […]
Disease assessments were carried out 21 days post inoculation (dpi) by measuring the length of the necrosis of the leaf fragment. The intensity of infection was then determined in percent of the total length of the leaf fragment.
The efficacy was calculated based on the Area Under the Disease Progress Curve (AUDPC) which is a quantitative measure of disease intensity over time. […]
The fungicide efficacies were determined from the AUDPC values and expressed in percent of the untreated control.

Series [2] in a line: Storage stability: concentration / degradation of compound of Formula I in composition. It counts as physicochemical. The conditions noted are these: for 2W/54° C. analysis (% of 10° C.): non-aqueous composition, 2 weeks at 54° C. The source says: As used herein, the term “stable” when used in connection with chemical stability, e.g. chemically stable, means that the composition meets the chemical stability standards set forth by the Food and Agriculture Organization of the United Nations (FAO) in the Manual on Development and Use of FAO and WHO Specification for Pesticides (First Edition—Third Revision) (the “FAO/WHO Manual”) (available at http://www.fao.org/agriculture/crops/thematic-sitemap/theme/pests/jmps/manual/en/), the entire content of which is hereby incorporate by reference into the subject application. […] The amount of degradation permitted before the degradation is considered to be significant depends on the concentration of the active ingredients in the composition.
The physical and chemical stability of composition of Example 1 were tested under various conditions including CIPAC conditions.

A short description of series [3]: Water content of composition. It counts as physicochemical. The conditions noted are these: non-aqueous composition. The source says: As used herein, the term “water content” when used in connection with a composition, a mixture, or a component in the composition or mixture refers to the amount of free water in the composition, mixture or component of the composition or mixture and the water molecules chemically bound to another compound, such as water molecules in a hydrate.

The mark [4] stands for this setting: 20% Hydrate and 80% Form I Polymorph.
Setting [5] is: 45% Hydrate, and 55% Form I Polymorph.

Structures are written as SMILES. Values joined by “and” are separate entries in the source; they are usually repeats but may differ in a detail not shown here. Equal entries are not always repeated.

In the case of `Cc1ccc(S(=O)(=O)n2cc(F)c(=N)n(C)c2=O)cc1` [compound of Formula I, 5-fluoro-4-imino-3-methyl-1-tosyl-3,4-dihydropyrimidin-2(1H)-one], the “fungicidal efficacy compared to application without adjuvant” value in series [1] (SC composition tank mixed with Silwet® (0.01 L/ha), wheat cv. Alixan) was “increased the efficacy and the effective fungicidal activity”; in series [1] (SC composition tank mixed with Trycol® (0.2 or 0.4 L/ha), wheat cv. Alixan) it was “increased the efficacy and the effective fungicidal activity”; in series [1] (two adjuvants: Silwet® or Agnique® BP 420 with PVP or VP/VA, 10 g a.i./ha), “increased the efficacy and the effective fungicidal activity”. The “degradation of the compound of Formula I” value is given as 4% in series [2] (8 weeks of storage at 40° C., with Attagel 50 (0.5%) and Bentone SD-1 (0.5%)); 7-8% in series [2] (8 weeks of storage at 40° C., without Attagel 50 and Bentone SD-1); not above 5% in series [2] (non-aqueous composition with water scavenger); 5-10% in series [2] (non-aqueous composition without water scavenger).
On to `Cc1ccc(S(=O)(=O)n2cc(F)c(=N)n(C)c2=O)cc1` [Hydrate I, 5-fluoro-4-imino-3-methyl-1-tosyl-3,4-dihydropyrimidin-2(1H)-one], for which the “% Water Content” value in series [3] (setting [4]) was 0.24% and 0.22%; in series [3] (setting [5]), 0.35%. The “2W/54° C. analysis (% of 10° C.)” value was 88.5 % of 10 °C and 88.7 % of 10 °C in series [2] (setting [4]); 89.3 % of 10 °C and 88.6 % of 10 °C in series [2] (setting [5]).
